Patent US10780092B2, “Fused pyrazine derivatives useful as soluble guanylate cyclase stimulators” (Merck Sharp & Dohme Corp., priority 2016, dated 2020)

How the values were obtained:
sGC α1/β1 heterodimer = sGC α1/β1 heterodimer (Homo sapiens (Human), UniProt Q02108+Q02153); assay: Cell-based sGC functional assay (CASA assay), cGMP by HTRF; conditions: CHO-K1/sGC cells; for Emax: CHO-K1, cGMP production as percentage of maximum of compound A (set to 100%), read-out: % Activation; for EC50: inflection point of cGMP production, 4P fit, read-out: IP; for % Activation: cGMP production as percentage of maximum of compound A (set to 100%)
Text: Cell-Based sGC Functional Assay (Cyclic GMP Assay for sGC Activator: CASA Assay)
Soluble guanylate cyclase (sGC) is a heme-containing enzyme that converts GTP to secondary messenger cGMP. Increases in cGMP levels affect several physiological processes including vasorelaxation through multiple downstream pathways. […] Heme-dependent activators (HDAs) preferentially target sGC containing a ferrous heme group. To determine the effect of sGC activators on enzyme activity, the CASA assay was developed to monitor the generation of cGMP in a cell line that stably expresses the heterodimeric sGC protein.
A CHO-K1 cell line stably expressing the sGC α1/β1 heterodimer was generated using a standard transfection protocol. The cDNA's encoding human sGC α1 and β1 were cloned in pIRES hyg and pIRES neo respectively using standard molecular biology techniques. The plasmids pIRES hyg and pIRES neo plasmids were obtained from Clontech. CHO-K1 cells were transfected with plasmids pIREShyg-hsGCα1 and pIRESneo-hsGCβ1 simultaneously using FUGENE reagent. Clones that stably express both subunits were selected with hygromycin and neomycin for ˜2 weeks. The clone chosen for the assay was designated CHO-K1/sGC. CHO-K1/sGC cells were maintained in F-K12 medium containing 10% heat-inactivated Fetal Bovine Serum (FBS), 100 μg/mL penicillin/streptomycin, 0.5 mg/mL hygromycin and 0.25 mg/mL G418. The cells were then cryopreserved in liquid nitrogen. On the day of the assay, the cells were thawed and resuspended in EBSS Assay Buffer (Sigma, E3024) supplemented with 5 mM MgCl2, 10 mM HEPES (4-(2-hydroxyethyl)piperazine-1-ethanesulfonic acid) and 0.05% BSA (bovine serum albumin) and cell density was then adjusted to 2.25×10^5/mL with EAB. IBMX (3-isobutyl-1-methylxanthin, 0.5 mM) was added to inhibit degradation of cGMP. Compounds were diluted from DMSO stock solutions and added to the assay at a final DMSO concentration of 2.5%. Cells were pre-incubated in the presence and absence of 1 μM of Diethylenetriamine/nitric oxide adduct (DETA-NO; Sigma, 17018) for 30 min at 25° C. Compounds were subsequently added and incubated for 1 hr at 37° C. At the end of the incubation period, the reaction was terminated and the cells were lysed with the detection reagents from Cisbio Kits. The level of intracellular cGMP was determined using an HTRF-based assay kit (CisBio, 62GM2PEC), which detects the displacement of a fluorescence labeled cGMP from its specific antibody. The cGMP produced by test compounds was directly compared to the maximum cGMP production (this value was set to equal 100% activation) of the published sGC compound A (Example 1 in WO 2010/065275, published Jun. 10, 2010).
The test compounds' activities were then expressed as a percentage of compound A, the standard in every experiment. This percent activation was calculated either in the presence or absence of DETA-NO which was then plotted. Inflection points (IP) and maximum fold induction was derived using Abase analysis software for 4P fit.

[1] = target: human recombinant sGC enzyme (Homo sapiens (Human), UniProt Q02108+Q02153); assay: SEC competition binding assay with [3H] Compound B radioligand; conditions: displacement of 1.6 nM [3H] Compound B, 24 h at 37° C.
Experimental: The binding potencies of sGC compounds to the human recombinant sGC enzyme were determined in a Size Exclusion Chromatography (SEC) competition binding assay using [^3H] Compound B as the radioligand. [^3H] Compound B was prepared using a standardardized tritium exchange procedure. The parent (non-labeled) molecule was first iodinated then a Pd-catalyzed iodine to tritium exchange provided the labeled compound.
Method: The binding buffer was composed of 50 mM triethanolamine pH 7.4, 3 mM MgCl2, 0.025% BSA, 2 mM dithiothreitol (DTT), 300 μM DETA/NO and 400 μM GTP. Assays were conducted in 96-well plates in a total volume of 200 μL. Recombinant human sGC protein (40 ng) was incubated with 1.6 nM [^3H] Compound B for 24 h at 37° C. in the presence and absence of various concentrations of sGC testing compounds delivered as DMSO solutions to give a total of 1% organic solvent content. Non-specific binding was defined by competition with 1 μM of Compound B. After the incubation period, the binding mixtures were loaded onto the gel-filtration plate (ThermoFischer Cat. No. 89808) pre-equilibrated with binding buffer and spun at 1000×g for 3 min at 4° C. on a Bench top centrifuge. The collected eluates in White Frame Clear Well Isoplates (Perkin Elmer Cat #6005040) received 100 μl of UltimaGold scintillation cocktail. The sealed plates were shaken vigorously and span, and counted after 6 hs with a Wallac Microbeta TriLux 1450 LSC & Luminescence Counter (Perkin Elmer). Data from competition experiments were analyzed to determine Ki values using one site—fit Ki equation.

SMILES	Emax (sGC α1/β1 heterodimer) [%]	EC50 (sGC α1/β1 heterodimer) [nM]	Ki [1] [nM]	% Activation (sGC α1/β1 heterodimer) [%]
CC1(c2ccc(F)c(O)c2)C(=O)Nc2nc(-c3cn4ncnc4c(CCC(F)(F)C(F)(F)F)n3)nc(N)c21 (racemic) [Example 114-B, 4-Amino-5-(4-fluoro-3-hydroxyphenyl)-5-methyl-2-(8-(3,3,4,4,4-pentafluorobutyl)-[1,2,4]-triazolo[1,5-a]pyrazin-6-yl)-5,7-dihydro-6H-pyrrolo(2,3-d]pyrimidin-6-one]	112	137	4.95	
CC1(c2ccc(O)c(F)c2)C(=O)Nc2nc(-c3cn4ncnc4c(CCC(F)(F)C(F)(F)F)n3)nc(N)c21 (racemic) [Example 116-B, 4-Amino-5-(3-fluoro-4-hydroxyphenyl)-5-methyl-2-(8-(3,3,4,4,4-pentafluorobutyl)-[1,2,4]triazolo[1,5-a]pyrazin-6-yl)-5,7-dihydro-6H-pyrrolo-[2,3-d]pyrimidin-6-one]	137	95	6.37	
CC1(c2cc(Cl)c(O)cn2)C(=O)Nc2nc(-c3cn4ccnc4c(Cc4ccccc4F)n3)nc(N)c21 (single isomer, unassigned) [Example 53-B, 4-Amino-5-(4-chloro-5-hydroxypyridin-2-yl)-2-{8-[(2-fluorophenyl)methyl]imidazo[1,2-a]pyrazin-6-yl}-5-methyl-5,7-dihydro-6H-pyrrolo[2,3-d]pyrimidin-6-one]		771	1.08	144
CC1(c2cc(Cl)c(O)cn2)C(=O)Nc2nc(-c3cn4ccnc4c(Cc4ccccc4F)n3)nc(N)c21 (single isomer, unassigned) [Example 104-B, 4-Amino-5-(4-chloro-5-hydroxypyridin-2-yl)-2-{8-[(2-fluorophenyl)methyl]imidazo[1,2-a]pyrazin-6-yl}-5-methyl-5,7-dihydro-6H-pyrrolo[2,3-d]pyrimidin-6-one]	144	813	1.1	
CC1CCC(Cc2nc(-c3nc(N)c4c(n3)NC(=O)C4(C)c3ccc(O)c(Cl)c3)cn3ccnc23)CC1 (single isomer, unassigned) [Example 120-BA, 4-Amino-5-(3-chloro-4-hydroxyphenyl)-5-methyl-2-{8-[(4-methyl-cyclohexyl)methyl]-imidazo[1,2-a]pyrazin-6-yl}-5,7-dihydro-6H-pyrrolo[2,3-d]pyrimidin-6-one]	133	85	10.9	
CC1CCC(Cc2nc(-c3nc(N)c4c(n3)NC(=O)C4(C)c3ccc(O)c(Cl)c3)cn3ccnc23)CC1 (single isomer, unassigned) [Example 120-BB, 4-Amino-5-(3-chloro-4-hydroxyphenyl)-5-methyl-2-{8-[(4-methylcyclo-hexyl)methyl]imidazo-[1,2-a]pyrazin-6-yl}-5,7-dihydro-6H-pyrrolo-[2,3-d]pyrimidin-6-one]		39	3.79	121
CC1(c2ccc(Cl)c(O)c2)C(=O)Nc2nc(-c3cn4ccnc4c(Cc4ccc(F)cc4)n3)nc(NCC(O)C(F)(F)F)c21 (single isomer, unassigned) [Example 132-AA, 5-(4-Chloro-3-hydroxy-phenyl)-2-{8-[(4-fluoro-phenyl)methyl]imidazo-[1,2-a]pyrazin-6-yl}-5-methyl-4-[(3,3,3-trifluoro-2-hydroxy-propyl)amino]-5,7-dihydro-6H-pyrrolo-[2,3-d]-pyrimidin-6-one]	99	746	1.21	
CC1(c2ccc(Cl)c(O)c2)C(=O)Nc2nc(-c3cn4ccnc4c(Cc4ccc(F)cc4)n3)nc(NCC(O)C(F)(F)F)c21 (single isomer, unassigned) [Example 132-AB, 5-(4-Chloro-3-hydroxy-phenyl)-2-{8-[(4-fluoro-phenyl)methyl]imidazo-[1,2-a]pyrazin-6-yl}-5-methyl-4-[(3,3,3-trifluoro-2-hydroxypropyl)amino]-5,7-dihydro-6H-pyrrolo-[2,3-d]pyrimidin-6-one]		736	1.46	95
CC1(c2ccc(Cl)c(O)c2)C(=O)Nc2nc(-c3cn4ncnc4c(CCC(F)(F)C(F)(F)F)n3)nc(NCC(O)C(F)(F)F)c21 (single isomer, unassigned) [Example 133-AA, 5-(4-Chloro-3-hydroxy-phenyl)-5-methyl-2-(8-(3,3,4,4,4-pentafluoro-butyl)-[1,2,4]triazolo-[1,5-a]pyrazin-6-yl)-4-[(3,3,3-trifluoro-2-hydroxypropyl)amino]-5,7-dihydro-6H-pyrrolo-[2,3-d]pyrimidin-6-one]	38	1290	2.34	
CC1(c2ccc(Cl)c(O)c2)C(=O)Nc2nc(-c3cn4ncnc4c(CCC(F)(F)C(F)(F)F)n3)nc(NCC(O)C(F)(F)F)c21 (single isomer, unassigned) [Example 133-AB, 5-(4-Chloro-3-hydroxy-phenyl)-5-methyl-2-(8-(3,3,4,4,4-pentafluoro-butyl)-[1,2,4]triazolo-[1,5-a]pyrazin-6-yl)-4-[(3,3,3-trifluoro-2-hydroxypropyl)amino]-5,7-dihydro-6H-pyrrolo-[2,3-d]pyrimidin-6-one]		3380	9.24	48
CC1(c2cc(O)c(Cl)c(F)c2)C(=O)Nc2nc(-c3cn4ccnc4c(Cc4cccc(F)c4)n3)nc(N)c21 (stereo not drawn) [Example 5-B, 4-Amino-5-(4-chloro-3-fluoro-5-hydroxyphenyl)-2-{8-[(3-fluorophenyl)methyl]imidazo[1,2-a]pyrazin-6-yl}-5-methyl-5,7-dihydro-6H-pyrrolo[2,3-d]pyrimidin-6-one]	113	188	0.091	
CC1(c2cc(O)c(Cl)c(F)c2)C(=O)Nc2nc(-c3cn4ccnc4c(Cc4cc(F)ccc4F)n3)nc(N)c21 (stereo not drawn) [Example 6-B, 4-Amino-5-(4-chloro-3-fluoro-5-hydroxyphenyl)-2-{8-[(2,5-difluorophenyl)methyl]imidazo[1,2-a]pyrazin-6-yl}-5-methyl-5,7-dihydro-6H-pyrrolo[2,3-d]pyrimidin-6-one]	113	94	0.094	
CC1(c2cc(O)c(Cl)c(F)c2)C(=O)Nc2nc(-c3cn4ccnc4c(Cc4cc(F)cc(F)c4F)n3)nc(N)c21 (stereo not drawn) [Example 7-B, 4-Amino-5-(4-chloro-3-fluoro-5-hydroxyphenyl)-5-methyl-2-{8-[(2,3,5-trifluorophenyl)methyl]imidazo[1,2-a]pyrazin-6-yl}-5,7-dihydro-6H-pyrrolo[2,3-d]pyrimidin-6-one]	102	217	0.098	
CC1(c2cc(O)c(F)c(F)c2)C(=O)Nc2nc(-c3cn4ccnc4c(Cc4ccccc4F)n3)nc(N)c21 (stereo not drawn) [Example 9-B, 4-Amino-5-(3,4-difluoro-5-hydroxyphenyl)-2-{8-[(2-fluorophenyl)methyl]imidazo[1,2-a]pyrazin-6-yl}-5-methyl-5,7-dihydro-6H-pyrrolo[2,3-d]pyrimidin-6-one]	85	1040	0.126	
